Reference: ChEMBL document CHEMBL3632469, “Discovery of dihydroquinazolinone derivatives as potent, selective, and CNS-penetrant M(1) and M(4) muscarinic acetylcholine receptors agonists” (Bioorg Med Chem Lett, 2015)

Assays:
Format in all cases: functional, cell-based
[1] = molecular target: T1, Muscarinic acetylcholine receptor M1 (Homo sapiens) (UniProt P11229); test: Agonist activity at human muscarinic M1 acetylcholine receptor expressed in CHO cells assessed as calcium mobilization at 0.3 uM by FLIPR assay
T1 sequence (whole entry): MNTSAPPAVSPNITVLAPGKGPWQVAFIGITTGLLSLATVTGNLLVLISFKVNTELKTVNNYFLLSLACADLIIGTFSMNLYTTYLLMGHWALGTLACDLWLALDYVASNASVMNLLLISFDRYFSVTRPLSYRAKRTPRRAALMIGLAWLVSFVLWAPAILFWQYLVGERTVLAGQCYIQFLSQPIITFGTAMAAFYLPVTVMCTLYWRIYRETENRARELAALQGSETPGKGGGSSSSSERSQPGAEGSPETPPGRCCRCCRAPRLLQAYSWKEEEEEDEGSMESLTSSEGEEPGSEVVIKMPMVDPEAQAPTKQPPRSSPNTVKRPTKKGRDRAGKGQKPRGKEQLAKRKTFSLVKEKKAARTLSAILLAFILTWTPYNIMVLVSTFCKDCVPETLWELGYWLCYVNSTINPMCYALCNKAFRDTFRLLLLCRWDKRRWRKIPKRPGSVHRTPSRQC

[2] = molecular target: T2, Muscarinic acetylcholine receptor M4 (Homo sapiens) (UniProt P08173); test: Partial agonist activity at human muscarinic M4 acetylcholine receptor expressed in CHO cells co-expressing Galpha16 assessed as calcium mobilization at 0.3 uM by FLIPR assay
T2 sequence (whole entry): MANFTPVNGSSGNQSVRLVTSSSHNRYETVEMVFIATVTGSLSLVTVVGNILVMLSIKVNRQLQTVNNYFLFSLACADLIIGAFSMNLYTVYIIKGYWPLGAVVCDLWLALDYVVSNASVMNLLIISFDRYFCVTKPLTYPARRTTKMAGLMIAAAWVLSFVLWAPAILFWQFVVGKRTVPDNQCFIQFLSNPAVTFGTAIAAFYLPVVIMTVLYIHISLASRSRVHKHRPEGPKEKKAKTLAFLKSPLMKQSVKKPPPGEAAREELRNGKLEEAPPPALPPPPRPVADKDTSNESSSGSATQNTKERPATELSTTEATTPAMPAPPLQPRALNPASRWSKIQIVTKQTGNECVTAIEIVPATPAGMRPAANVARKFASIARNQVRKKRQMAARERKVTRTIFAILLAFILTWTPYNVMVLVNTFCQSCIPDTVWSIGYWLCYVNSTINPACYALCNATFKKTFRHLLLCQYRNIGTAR

[3] = molecular target: Muscarinic acetylcholine receptor M3 (Homo sapiens) (UniProt P20309); test: Agonist activity at human muscarinic M3 acetylcholine receptor expressed in CHO cells assessed as calcium mobilization at 0.3 uM by FLIPR assay
Chain of Muscarinic acetylcholine receptor M3 (Homo sapiens) (P20309 whole entry, looked up): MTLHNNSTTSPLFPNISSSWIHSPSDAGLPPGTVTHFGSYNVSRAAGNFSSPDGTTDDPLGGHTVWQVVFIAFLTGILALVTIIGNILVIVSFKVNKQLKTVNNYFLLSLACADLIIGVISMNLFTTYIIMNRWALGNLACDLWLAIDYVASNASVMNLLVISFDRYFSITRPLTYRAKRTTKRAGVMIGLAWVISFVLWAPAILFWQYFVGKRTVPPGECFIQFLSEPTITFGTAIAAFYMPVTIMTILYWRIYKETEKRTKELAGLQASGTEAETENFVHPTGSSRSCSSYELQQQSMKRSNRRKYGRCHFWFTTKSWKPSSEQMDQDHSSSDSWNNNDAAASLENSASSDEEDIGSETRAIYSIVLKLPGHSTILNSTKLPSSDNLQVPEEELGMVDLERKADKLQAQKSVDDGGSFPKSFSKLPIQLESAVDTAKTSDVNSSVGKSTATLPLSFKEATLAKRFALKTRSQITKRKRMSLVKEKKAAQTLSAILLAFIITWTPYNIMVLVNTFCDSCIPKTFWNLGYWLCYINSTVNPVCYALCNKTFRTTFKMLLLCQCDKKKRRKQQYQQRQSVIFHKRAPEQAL

[4] = molecular target: T3, Muscarinic acetylcholine receptor M2 (Homo sapiens) (UniProt P08172); test: Agonist activity at human muscarinic M2 acetylcholine receptor expressed in CHO cells co-expressing Galpha16 assessed as calcium mobilization at 0.3 uM by FLIPR assay
T3 sequence (whole entry): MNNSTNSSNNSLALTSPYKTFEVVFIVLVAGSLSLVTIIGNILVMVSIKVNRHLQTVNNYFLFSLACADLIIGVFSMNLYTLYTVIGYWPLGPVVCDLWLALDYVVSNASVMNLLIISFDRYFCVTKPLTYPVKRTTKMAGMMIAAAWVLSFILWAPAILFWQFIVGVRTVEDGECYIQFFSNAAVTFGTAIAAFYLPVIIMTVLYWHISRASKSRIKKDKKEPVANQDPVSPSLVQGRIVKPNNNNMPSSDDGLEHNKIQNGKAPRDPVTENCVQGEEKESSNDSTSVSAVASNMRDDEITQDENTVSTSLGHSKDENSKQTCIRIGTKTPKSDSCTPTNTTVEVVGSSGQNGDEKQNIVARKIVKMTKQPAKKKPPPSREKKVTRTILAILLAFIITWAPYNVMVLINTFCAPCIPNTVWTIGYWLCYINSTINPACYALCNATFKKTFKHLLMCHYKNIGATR

[5] = molecular target: T4, Muscarinic acetylcholine receptor M5 (Homo sapiens) (UniProt P08912); test: Agonist activity at human muscarinic M5 acetylcholine receptor expressed in CHO cells assessed as calcium mobilization at 10 uM by FLIPR assay
T4 sequence (whole entry): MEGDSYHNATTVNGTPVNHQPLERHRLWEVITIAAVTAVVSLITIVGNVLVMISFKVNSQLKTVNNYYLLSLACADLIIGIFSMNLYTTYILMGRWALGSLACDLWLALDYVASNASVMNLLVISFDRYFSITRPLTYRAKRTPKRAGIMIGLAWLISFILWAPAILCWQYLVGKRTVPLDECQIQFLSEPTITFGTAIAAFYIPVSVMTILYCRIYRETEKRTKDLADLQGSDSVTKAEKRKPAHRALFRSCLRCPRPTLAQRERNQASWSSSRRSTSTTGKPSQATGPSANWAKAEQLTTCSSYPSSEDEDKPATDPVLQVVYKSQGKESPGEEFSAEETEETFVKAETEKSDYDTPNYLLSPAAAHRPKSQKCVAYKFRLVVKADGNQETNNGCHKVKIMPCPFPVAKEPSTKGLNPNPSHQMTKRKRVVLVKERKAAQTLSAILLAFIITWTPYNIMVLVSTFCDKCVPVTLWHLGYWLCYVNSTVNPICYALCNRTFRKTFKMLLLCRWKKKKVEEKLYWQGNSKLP

[6] = molecular target: T2, Muscarinic acetylcholine receptor M4 (Homo sapiens); test: Partial agonist activity at human muscarinic M4 acetylcholine receptor expressed in CHO cells co-expressing Galpha16 assessed as calcium mobilization at 30 uM by FLIPR assay

CCOC(=O)N1CCC(CN2CC[C@@H](N3Cc4ccccc4NC3=O)C2)CC1
Activity [1]: 95%
Activity [2]: 91%
Activity [3]: 2%
Activity [4]: 53%
Activity [5]: 3%

CCOC(=O)N1CCC(CN2CCC(N3Cc4ccccc4NC3=O)CC2)CC1
Activity [1]: 82%
Activity [2]: 66%
Activity [3]: 7%
Activity [4]: 39%

CCOC(=O)N1CCC(CN2CC(N3Cc4ccccc4NC3=O)C2)CC1
Activity [1]: 105%
Activity [2]: 115%
Activity [3]: 1%
Activity [4]: 17%

CCOC(=O)N1CCC(CN2CC[C@H](N3Cc4ccccc4NC3=O)C2)CC1
Activity [1]: 62%
Activity [2]: 30%
Activity [3]: 3%
Activity [4]: 2%

CCOC(=O)N1CCC(N2CCC(N3Cc4ccccc4NC3=O)CC2)CC1
Activity [1]: 86%
Activity [2]: 114%
Activity [3]: 21%
Activity [4]: 66%
Activity [5]: 31%

CCOC(=O)N1[C@@H]2CC[C@H]1C[C@H](CN1CC(N3Cc4ccccc4NC3=O)C1)C2
Activity [1]: 87%
Activity [2]: 64%
Activity [3]: 1%
Activity [6]: 65%
Activity [4]: 12%
